Measurements as given in patent US8337899B2, “Solid pharmaceutical dispersions with enhanced bioavailability” (Bend Research, Inc., priority 1997, dated 2012).

Legend:
[1] = syringe/filter in vitro dissolution test in MFD solution; format: physicochemical; conditions: for C90: concentration at 90 minutes; for MSSC (maximum supersaturated concentration): syringe/filter method, MFD solution pH 6.5, 37° C., 0.45 μm filtrate
Procedure: This example discloses an in vitro dissolution test termed the “syringe/filter” method. In this method the concentration of test compound in solution is determined as a function of time. Test solution is held in a syringe from which samples are expelled through a filter at pre-determined time points. In between expelling samples from the syringe, the syringe is rotated (50 rpm) on a wheel held in an oven at 37° C.
A 20 GA hypodermic needle was attached to the syringe, and 10 mL of a model-fasted duodenal (MFD) solution at 37° C. was drawn into the syringe.
The MFD solution was prepared using the following procedure. […] This mixture was then mixed thoroughly by vortex mixer (Fisher Vortex Genie), and the solvent removed rapidly by roto-evaporator (Rotavapor RE121, Büchi), leaving a dry white surface dispersion coating the flask. The surface dispersion was then reconstituted with 200 mL of the 37° C. phosphate buffered saline.
The needle was then replaced with a 13 mm, 0.45 μm polyvinylidine diflouride syringe filter (Scientific Resources, Titan), and the syringe was vigorously shaken for 30 sec. After 30 sec, 6 drops of the solution was expelled and a subsequent 13 drop sample was delivered to a test tube. After expelling the sample, the syringe plunger was drawn back to pull an air bubble into the syringe to aid in subsequent mixing and the syringe placed back on a rotating wheel in a 37° C. oven. […] The remaining solution in the syringe was mixed by rotating on a wheel at 50 rpm in a 37° C. temperature-controlled box.

aqueous solubility = format: physicochemical; conditions: pH 6.5
[2] = centrifuge in vitro dissolution test in MFD solution; format: physicochemical; conditions: centrifuge method; for MSSC (maximum supersaturated concentration): MFD solution pH 6.5, 37° C., supernatant; for C90: concentration at 90 minutes; for C1200: concentration at 1200 minutes
Procedure: This example discloses an in vitro dissolution test termed the “centrifuge” method. This method was used to test the dissolution of material made by essentially the same method as that described in Example 1 except that the concentration of Compound 1 was decreased by a factor of 2 to 66.5 mg such that the ratio of compound to polymer was 1:1. (see Example 7, Table I).
In a 37° C. controlled temperature box, 1.8 mg of solid product from Example 1 was accurately weighed into an empty microcentrifuge tube (polypropylene, Sorenson Bioscience Inc.). The theoretical maximum concentration of compound in solution (e.g., if all compound dissolved) was 383 μgA/ml [1.8 mg dispersion (1000 μg/1 mg) (0.5 μg compound/μg dispersion) (0.764 compound assay)/1.8 ml=[…]]. This value is termed the theoretical maximum supersaturated concentration and is abbreviated Theoretical MSSC. 1.8 mL of a 37C phosphate buffered saline solution (8.2 mM NaCl, 1.1 mM Na2HPO4, 4.7 mM KH2PO4, pH 6.5, 290 mOsm/kg) containing 14.7 mM sodium taurocholic acid (Fluka) and 2.8 mM 1-palmitoyl-2-oleoyl-sn-glycero-3-phosphocholine (Avanti Polar Lipids) was added to the tube. The centrifuge tube was closed and a timer was started. The tube was then mixed continuously at the highest speed on a vortex mixer (Fisher Vortex Genie 2) for 60 seconds. The tube was transferred to a centrifuge (Marathon, Model Micro A) allowed to stand undisturbed for six minutes, then centrifuged at 13,000 G for 60 seconds. A 25 uL sample was removed from the solids-free supernatant in the centrifuge tube via pipette (Gilson Pipetman P-100) ten minutes after the timer was started. Solids in the centrifuge tube were resuspended by mixing the sample continuously on the vortex mixer for 30 seconds. The centrifuge tube was returned to the centrifuge and allowed to stand undisturbed until the next sample was taken. Each sample was centrifuged, sampled and resuspended as described previously. Each sample was diluted 1:1 with a solution containing 60/40 1.7 wt % ammonium ascorbate/acetonitrile, and the concentration of compound was determined by HPLC (Hewlett Packard 1090 HPLC, Phenomenex Ultracarb ODS 20 analytical column, absorbance measured at 215 nm with a diode array spectrophotometer). […] […] The maximum compound concentration observed, 125 μgA/ml, is termed the maximum supersaturated concentration of compound and is abbreviated MSSC.

[3] = solid amorphous dispersions in HPMCAS, pH 4.0; cited from earlier work

CON(C)C(=O)C(O)[C@H](Cc1ccccc1)NC(=O)c1cc2cc(Cl)ccc2[nH]1 (stereo in doubt) [Compound 1, [R—(R*,S*)]-5-chloro-N-[2-hydroxy-3-(methoxymethylamino)-3-oxo-1-(phenylmethyl)propyl]-1-H-indole-2-carboxamide] showed an equilibrium solubility ([1]; in the dissolution medium (MFD)) of 9 μgA/ml.

In the case of Cc1ccc2c(c1)N(CC(=O)NC(C)(C)C)C(=O)C(NC(=O)Nc1cccc(Cl)c1)CC2c1ccccc1 (stereo not drawn) [N-tert-butyl-2-{3-[3-(3-chloro-phenyl)-unreido]-8-methyl-2-oxo-5-phenyl-2,3,4,5-tetrahydrobenxo[b]azepin-1-yl}-acetamide], the aqueous solubility (aqueous solubility) is reported as “less than 3.0 μg/ml”.

In the case of CCC(CC)Nc1cc(C)nc(Oc2c(C)cc(C)cc2C)c1C [Example C16, [3,6-dimethyl-2-(2,4,6-trimethyl-phenoxy)-pyridin-4-yl]-(1-ethyl-propyl)-amine], the “MSSC (maximum supersaturated concentration)” value (“MSSC” below) [2] is reported as 22 μgA/mL, the C90 [2] is reported as 22 μgA/mL and the C1200 [2] is reported as 22 μgA/mL.

In the case of CC[C@H]1OC(=O)C[C@@H](O)[C@H](C)[C@@H](O[C@@H]2O[C@H](C)[C@@H](O[C@H]3C[C@@](C)(O)[C@@H](OC(=O)Cc4ccc(OC)cc4)[C@H](C)O3)[C@H](N(C)C)[C@H]2O)[C@@H](CC=O)C[C@@H](C)C(=O)/C=C/C(C)=C/[C@@H]1CO[C@@H]1O[C@H](C)[C@@H](O)[C@@H](OC)[C@H]1OC [MAT, 4″-0-(4-methoxyphenyl)acetyltylosin], the “supersaturated concentration relative to crystalline MAT” value [3] is given as 9 fold.

For CCC(CC)Oc1cc(C)nc(Oc2c(C)cc(C)cc2C)c1C [Example C5], the “MSSC” value [2] was 18 μgA/mL, the C90 [2] was 18 μgA/mL and the C1200 [2] was 13 μgA/mL.

Work on O=C1NC(=O)C(c2ccccc2)(c2ccccc2)N1 [Example C14, 5,5-diphenylhydantoin] yielded a C3 ([2]; concentration at 3 minutes) of 14 μgA/mL, a C10 ([2]; concentration at 10 minutes) of 20 μgA/mL and a C20 ([2]; concentration at 20 minutes) of 28 μgA/mL. It also gave a C40 ([2]; concentration at 40 minutes) of 34 μgA/mL and a C90 [2] of 50 μgA/mL.

For COC1=CC(=O)CC(C)C12Oc1c(Cl)c(OC)cc(OC)c1C2=O (stereo not drawn) [Example C11, 7-chloro-4,6-dimethoxy-courmaran-3-one-2-spiro-1′-(2′-methoxy-6′-methylcyclohex-2′en-4′-one)], the C60 ([1]; concentration at 60 minutes, syringe/filter, MFD, 37° C.) was 17 μgA/mL, the C90 ([1]; syringe/filter, MFD, 37° C.) was 15 μgA/mL and the “MSSC” value [1] was 18 μgA/mL.

With O=C(N[C@@H](Cc1ccccc1)[C@@H](O)C(=O)N1C[C@@H](O)[C@@H](O)C1)c1cc2cc(Cl)ccc2[nH]1 (relative stereo) [Example C17, 1H-Indole-2-caboxamide, 5-chloro-N-[3-(3,4-dihydroxy-1-pyrrolidinyl)-2-hydroxy-3-oxo-1-(phenylmethnyl)propyl]-, [R—[R*,S*-(cis)]]-] the “MSSC” value [2] was 194 μgA/mL, the C90 [2] was 158 μgA/mL and the C1200 [2] was 194 μgA/mL.

Work on CON(C)C(=O)C(O)[C@H](Cc1ccccc1)NC(=O)c1cc2cc(Cl)ccc2[nH]1 (stereo in doubt) [Example C1, [R—(R*,S*)]-5-chloro-N-[2-hydroxy-3-(methoxymethylamino)-3-oxo-1-(phenylmethyl)propyl]-1-H-indole-2-carboxamide] yielded a C90 ([1]; syringe/filter, MFD, 37° C.) of 10 μgA/mL, a C180 ([1]; concentration at 180 minutes, syringe/filter, MFD, 37° C.) of 8.5 μgA/mL and a C1200 ([1]; concentration at 1200 minutes, syringe/filter, MFD, 37° C.) of 9 μgA/mL. The “MSSC” value [1] was 10 μgA/mL.
